In general, IC50 refers to the point on the concentration scale where inhibition reaches its midpoint. Higher therefore signals weaker potency.

One test has as its target T1, Alpha glucosidase (Homo sapiens, UniProt O43451+P10253+P14410+Q2M2H8). Nature of the test: Inhibition of alpha-glucosidase (unknown origin) using pNPG as substrate preincubated for 10 mins followed by substrate addition measured after 30 mins. Format: protein assay.
On to `Fc1ccc2[nH]c(-c3ccccc3)c(-c3nc(-c4ccccc4)c(-c4ccccc4)n3-c3cccc(Cl)c3)c2c1`, for which the IC50 was in the range of 8300 to 98000 nM.

In a further test the target is T1, Alpha glucosidase. Nature of the test: Inhibition of alpha-glucosidase (unknown origin) using p-nitrophenyl-alpha-d-glucopyranoside as substrate preincubated for 15 mins followed by substrate addition measured after 30 mins by spectrophotometric analysis. In kind it is protein assay.
Consider `Fc1cccc(Cn2cc(CSc3nc4cc(Cl)ccc4s3)nn2)c1`, for which the IC50 was 20000 to 61000 nM.
Regarding `CC(C)(C)c1ccc(Cn2cc(CSc3nc4ccccc4s3)nn2)cc1`, the IC50 is 20000 to 61000 nM.
On the same count and under the same terms, under `Clc1ccccc1CSc1nc(-c2ccc(Br)cc2)cc(-c2cccc(Br)c2)n1` stands 19000 to 38000 nM; under `Fc1cccc(CSc2nc(-c3ccc(Br)cc3)cc(-c3cccc(Br)c3)n2)c1`, 19000 to 38000 nM.
In the case of `Clc1ccc(Cn2cc(CSc3nc4ccccc4s3)nn2)cc1`, the half-inhibitory concentration (IC50) was 20000 to 61000 nM.
For the compound `Clc1ccc(Cn2cc(CSc3nc4cc(Cl)ccc4s3)nn2)cc1`, the IC50 fell in the range of 20000 to 61000 nM.
The compound `Clc1ccc2sc(SCc3cn(Cc4ccccc4Cl)nn3)nc2c1` showed an IC50 of 20000 to 61000 nM.
On the same count and under the same terms, to `Clc1cc(Cl)cc(Cn2cc(CSc3nc4ccccc4s3)nn2)c1` belongs 20000 to 61000 nM; to `Fc1ccccc1CSc1nc(-c2ccc(Br)cc2)cc(-c2ccc(Br)cc2)n1`, 19000 to 38000 nM; to `Cc1ccc(-c2cc(-c3cccc(Br)c3)nc(SCc3cccc(F)c3)n2)cc1`, 19000 to 38000 nM.
Still for that read-out and setting: under `CC(C)(C)c1ccc(Cn2cc(CSc3nc4cc(Cl)ccc4s3)nn2)cc1` stands 20000 nM; under `Clc1ccc(CSc2nc(-c3ccc(Br)cc3)cc(-c3ccc(Br)cc3)n2)cc1`, 19000 to 38000 nM; under `Cc1ccc(-c2cc(-c3ccc(Br)cc3)nc(SCc3ccccc3Br)n2)cc1`, 19000 to 38000 nM.
Same read-out and setting: to `Fc1cccc(CSc2nc(-c3ccc(Br)cc3)cc(-c3ccc(Br)cc3)n2)c1` belongs 19000 to 38000 nM.
Regarding `Cc1ccc(-c2cc(-c3cccc(Br)c3)nc(SCc3ccccc3Cl)n2)cc1`, the IC50 lay within 19000 to 38000 nM.
Turning to `Cc1ccc(-c2cc(-c3ccc(Br)cc3)nc(SCc3ccc(Cl)cc3)n2)cc1`, the IC50 lay within 19000 to 38000 nM.
Still for that read-out and setting: to `Cc1ccc(-c2cc(-c3cccc(Br)c3)nc(SCc3ccc(F)cc3)n2)cc1` belongs 19000 to 38000 nM.
Still for that read-out and setting: under `Fc1ccc(CSc2nc(-c3ccc(Br)cc3)cc(-c3ccc(Br)cc3)n2)cc1` stands 19000 to 38000 nM; under `O=C(COc1ccc2ccc(=O)oc2c1)N/N=C1\C(=O)N(Cc2ccccc2F)c2ccc(Cl)cc21`, 2500 nM; under `Clc1ccc2sc(SCc3cn(Cc4ccccc4Br)nn3)nc2c1`, 20000 to 61000 nM.
Same read-out and setting: to `Fc1ccc(Cn2cc(CSc3nc4cc(Cl)ccc4s3)nn2)cc1` belongs 20000 to 61000 nM; to `Brc1ccccc1Cn1cc(CSc2nc3ccccc3s2)nn1`, 20000 to 61000 nM.
As to `Brc1ccc(Cn2cc(CSc3nc4ccccc4s3)nn2)cc1`, the IC50 fell in the range of 20000 to 61000 nM.
`Clc1cc(Cl)cc(Cn2cc(CSc3nc4cc(Cl)ccc4s3)nn2)c1`: the IC50 lay within 20000 to 61000 nM.

Target in a further test: not listed separately
Nature of the test: Inhibition of yeast alpha-glucosidase. On the set-up: species or system Saccharomyces cerevisiae.
The compound `O=c1cc(-c2cccc(OCc3ccc([N+](=O)[O-])cc3)c2)oc2ccccc12` yielded an IC50 of 1200 to 88000 nM.
On to `Cc1cc2c(c(=O)[nH]1)C(=O)O/C2=C\c1ccccc1`, for which the IC50 was in the range of 1000 to 53000 nM.
Same read-out and setting: to `Cc1cc2c(c(=O)[nH]1)C(=O)O/C2=C\c1ccc(O)c(O)c1` belongs 1000 to 53000 nM.
Take `Cc1cc2c(c(=O)[nH]1)C(=O)O/C2=C\c1cc(Br)cs1`: the IC50 worked out at 240 nM.
Still for that read-out and setting: under `N#Cc1ccc(COc2cccc(-c3cc(=O)c4ccccc4o3)c2)cc1` stands 1200 to 88000 nM; under `O=c1cc(-c2cccc(OCc3ccccc3)c2)oc2ccccc12`, 1200 to 88000 nM; under `Cc1cc2c(c(=O)[nH]1)C(=O)O/C2=C\c1cccs1`, 240 to 10000 nM.
On the same count and under the same terms, under `Cc1cccc(COc2cccc(-c3cc(=O)c4ccccc4o3)c2)c1` stands 1200 to 88000 nM.
The same measure, in the same setting: under `Cc1cc2c(c(=O)[nH]1)C(=O)O/C2=C\c1cc(-c2ccnc(N3CCN(C(=O)OC(C)(C)C)CC3)c2)cs1` stands 8300 to 86000 nM; under `O=c1cc(-c2cccc(OCc3cccc(F)c3F)c2)oc2ccccc12`, 3400 nM; under `CC(C)(C)c1ccc(COc2cccc(-c3cc(=O)c4ccccc4o3)c2)cc1`, 1200 to 88000 nM.
Compound `COc1ccc(COc2cccc(-c3cc(=O)c4ccccc4o3)c2)cc1` came in with an IC50 of 1200 to 88000 nM.
For `Cc1cc2c(c(=O)[nH]1)C(=O)O/C2=C\c1nccn1C`, the IC50 is 900 nM.
In the case of `Cc1cc2c(c(=O)[nH]1)C(=O)O/C2=C\c1cccc(Br)c1`, the IC50 was 1000 to 53000 nM.
`COc1ccc(-c2csc(/C=C3\OC(=O)c4c3cc(C)[nH]c4=O)c2)cn1`: the IC50 lay in the range of 8300 to 86000 nM.
On the same count and under the same terms, to `Cc1cc2c(c(=O)[nH]1)C(=O)O/C2=C\c1ccc(F)c(F)c1` belongs 1000 nM; to `O=c1cc(-c2cccc(OCc3cccc(SC(F)(F)F)c3)c2)oc2ccccc12`, 1200 to 88000 nM; to `O=c1cc(-c2cccc(OCc3cc(C(F)(F)F)ccc3C(F)(F)F)c2)oc2ccccc12`, 1200 nM.
Take `Cc1cc2c(c(=O)[nH]1)C(=O)O/C2=C\c1ccc(Br)cc1`: the IC50 is 1000 to 53000 nM.
On the same count and under the same terms, under `Cc1cc2c(c(=O)[nH]1)C(=O)O/C2=C\c1ccccc1C(F)(F)F` stands 1000 to 53000 nM; under `Cc1cc2c(c(=O)[nH]1)C(=O)O/C2=C\c1cc(-c2ccccc2)cs1`, 8300 nM; under `N#Cc1cccc(COc2cccc(-c3cc(=O)c4ccccc4o3)c2)c1`, 1200 to 88000 nM.

A further test deals with T1, Alpha glucosidase. Put plainly: Inhibition of alpha-glucosidase (unknown origin) using p-nitro phenyl glucopyranoside as substrate preincubated for 5 mins followed by substrate addition measured after 30 mins. In kind it is protein assay.
In turn, `O=c1oc2ccccc2cc1-c1nn(C(Nc2ccc(Oc3ccc(NC(c4ccc(Cl)cc4Cl)n4nc(-c5cc6ccccc6oc5=O)oc4=S)cc3)cc2)c2ccc(Cl)cc2Cl)c(=S)o1` (stereo unspecified) registered an IC50 of 70 to 760 nM.
`Cc1ccc(C(Nc2ccc(Oc3ccc(NC(c4ccc(C)cc4)n4nc(-c5cc6ccccc6oc5=O)oc4=S)cc3)cc2)n2nc(-c3cc4ccccc4oc3=O)oc2=S)cc1` (stereo unspecified) returned an IC50 of 70 to 760 nM.
The compound `O=c1oc2ccccc2cc1-c1nn(C(Nc2ccc(Oc3ccc(NC(c4ccc(Cl)cc4)n4nc(-c5cc6ccccc6oc5=O)oc4=S)cc3)cc2)c2ccc(Cl)cc2)c(=S)o1` (stereo unspecified) displayed an IC50 of 70 to 760 nM.
Compound `O=c1cc(-c2nn(C(Nc3ccc(-c4ccc(NC(c5ccc(Cl)cc5Cl)n5nc(-c6cc7ccccc7oc6=O)oc5=S)cc4)cc3)c3ccc(Cl)cc3Cl)c(=S)o2)c2ccccc2o1` (stereo unspecified) came in with an IC50 of 70 to 760 nM.
Still for that read-out and setting: under `CN(C)c1ccc(C(Nc2ccc(NC(c3ccc(N(C)C)cc3)n3nc(-c4cc(=O)oc5ccccc45)oc3=S)cc2)n2nc(-c3cc4ccccc4oc3=O)oc2=S)cc1` (stereo unspecified) stands 70 to 760 nM; under `O=c1cc(-c2nn(C(Nc3ccc(NC(c4ccc(Cl)cc4)n4nc(-c5cc6ccccc6oc5=O)oc4=S)cc3)c3ccc(Cl)cc3)c(=S)o2)c2ccccc2o1` (stereo unspecified), 70 to 760 nM.
On to `Cc1ccc(C(Nc2ccc(NC(c3ccc(C)cc3)n3nc(-c4cc(=O)oc5ccccc45)oc3=S)cc2)n2nc(-c3cc4ccccc4oc3=O)oc2=S)cc1` (stereo unspecified), for which the 50% inhibitory concentration (IC50) lay in the range of 70 to 760 nM.
`O=c1cc(-c2nn(C(Nc3ccc(NC(c4ccc([N+](=O)[O-])cc4)n4nc(-c5cc6ccccc6oc5=O)oc4=S)cc3)c3ccc([N+](=O)[O-])cc3)c(=S)o2)c2ccccc2o1` (stereo unspecified) gave a half-maximal inhibitory concentration (IC50) of 70 to 760 nM.
Turning to `O=c1cc(-c2nn(C(Nc3ccc(-c4ccc(NC(c5ccc([N+](=O)[O-])cc5)n5nc(-c6cc7ccccc7oc6=O)oc5=S)cc4)cc3)c3ccc([N+](=O)[O-])cc3)c(=S)o2)c2ccccc2o1` (stereo unspecified), the IC50 was 70 to 760 nM.
The same measure, in the same setting: under `O=c1cc(-c2nn(C(Nc3ccc(NC(c4cccc(Br)c4)n4nc(-c5cc6ccccc6oc5=O)oc4=S)cc3)c3cccc(Br)c3)c(=S)o2)c2ccccc2o1` (stereo unspecified) stands 70 to 760 nM; under `O=c1cc(-c2nn(C(Nc3ccc(-c4ccc(NC(c5cccc(Cl)c5)n5nc(-c6cc7ccccc7oc6=O)oc5=S)cc4)cc3)c3cccc(Cl)c3)c(=S)o2)c2ccccc2o1` (stereo unspecified), 70 to 760 nM.
On the same count and under the same terms, under `O=c1cc(-c2nn(C(Nc3ccc(-c4ccc(NC(c5ccc(Cl)cc5)n5nc(-c6cc7ccccc7oc6=O)oc5=S)cc4)cc3)c3ccc(Cl)cc3)c(=S)o2)c2ccccc2o1` (stereo unspecified) stands 70 to 760 nM; under `CN(C)c1ccc(C(Nc2ccc(-c3ccc(NC(c4ccc(N(C)C)cc4)n4nc(-c5cc(=O)oc6ccccc56)oc4=S)cc3)cc2)n2nc(-c3cc4ccccc4oc3=O)oc2=S)cc1` (stereo unspecified), 70 to 760 nM.
Same read-out and setting: to `O=c1oc2ccccc2cc1-c1nn(C(Nc2ccc(Oc3ccc(NC(c4ccc([N+](=O)[O-])cc4)n4nc(-c5cc6ccccc6oc5=O)oc4=S)cc3)cc2)c2ccc([N+](=O)[O-])cc2)c(=S)o1` (stereo unspecified) belongs 70 to 760 nM; to `Cc1ccc(C(Nc2ccc(-c3ccc(NC(c4ccc(C)cc4)n4nc(-c5cc(=O)oc6ccccc56)oc4=S)cc3)cc2)n2nc(-c3cc4ccccc4oc3=O)oc2=S)cc1` (stereo unspecified), 70 to 760 nM; to `O=c1oc2ccccc2cc1-c1nn(C(Nc2ccc(Oc3ccc(NC(c4ccc(Br)cc4)n4nc(-c5cc6ccccc6oc5=O)oc4=S)cc3)cc2)c2ccc(Br)cc2)c(=S)o1` (stereo unspecified), 70 to 760 nM.
For the compound `O=c1cc(-c2nn(C(Nc3ccc(NC(c4cccc(Cl)c4)n4nc(-c5cc6ccccc6oc5=O)oc4=S)cc3)c3cccc(Cl)c3)c(=S)o2)c2ccccc2o1` (stereo unspecified), the IC50 was in the range of 70 to 760 nM.
With `COc1cccc(C(Nc2ccc(NC(c3cccc(OC)c3)n3nc(-c4cc(=O)oc5ccccc45)oc3=S)cc2)n2nc(-c3cc4ccccc4oc3=O)oc2=S)c1` (stereo unspecified), the half-maximal inhibitory concentration (IC50) is 70 to 760 nM.
Regarding `CN(C)c1ccc(C(Nc2ccc(Oc3ccc(NC(c4ccc(N(C)C)cc4)n4nc(-c5cc6ccccc6oc5=O)oc4=S)cc3)cc2)n2nc(-c3cc4ccccc4oc3=O)oc2=S)cc1` (stereo unspecified), the IC50 was 70 to 760 nM.
The same measure, in the same setting: under `O=c1cc(-c2nn(C(Nc3ccc(NC(c4ccc(F)cc4)n4nc(-c5cc6ccccc6oc5=O)oc4=S)cc3)c3ccc(F)cc3)c(=S)o2)c2ccccc2o1` (stereo unspecified) stands 70 to 760 nM; under `O=c1cc(-c2nn(C(Nc3ccc(-c4ccc(NC(c5ccc(Br)cc5)n5nc(-c6cc7ccccc7oc6=O)oc5=S)cc4)cc3)c3ccc(Br)cc3)c(=S)o2)c2ccccc2o1` (stereo unspecified), 70 to 760 nM; under `O=c1cc(-c2nn(C(Nc3ccc(-c4ccc(NC(c5cccc(Br)c5)n5nc(-c6cc7ccccc7oc6=O)oc5=S)cc4)cc3)c3cccc(Br)c3)c(=S)o2)c2ccccc2o1` (stereo unspecified), 70 to 760 nM.
Still for that read-out and setting: under `COc1cccc(C(Nc2ccc(-c3ccc(NC(c4cccc(OC)c4)n4nc(-c5cc(=O)oc6ccccc56)oc4=S)cc3)cc2)n2nc(-c3cc4ccccc4oc3=O)oc2=S)c1` (stereo unspecified) stands 70 to 760 nM.
Still for that read-out and setting: to `O=c1cc(-c2nn(C(Nc3ccc(NC(c4ccc(Cl)cc4Cl)n4nc(-c5cc6ccccc6oc5=O)oc4=S)cc3)c3ccc(Cl)cc3Cl)c(=S)o2)c2ccccc2o1` (stereo unspecified) belongs 70 to 760 nM.
